Results as given in ChEMBL document CHEMBL3227967, “Quantitative structure-activity relationships in 1-aryl-2-(alkylamino)ethanol antimalarials” (J Med Chem, 1979).

test system: Plasmodium berghei; assay: Antimalarial activity against Plasmodium berghei; format: functional

Row | Compound | log(1/C)
1 | CC(C)N(C)CC(O)c1cc(-c2ccc(Cl)cc2)nc2c(Cl)cc(Cl)cc12 (stereo not given) | 3.72
2 | CCCCN(CCCC)CC(O)c1cc(-c2ccc(C(F)(F)F)cc2)nc(-c2ccc(Cl)c(Cl)c2)c1 (stereo not given) | 3.16
3 | CCCCCCCN(CCCCCCC)CC(O)c1cc2ccc(Cl)c(Cl)c2c2cc(C(F)(F)F)ccc12 (stereo not given) | 3.92
4 | CCCCCCCN(CCCCCCC)CC(O)c1cccc2c1ccc1ccccc12 (stereo not given) | 2.58
5 | CCCN(CCC)CC(O)c1cccc2c1cc(Cl)c1ccccc12 (stereo not given) | 2.02
6 | CCCCN(CCCC)CC(O)c1cc(Cl)cc2c1-c1ccc(Cl)cc1C2=O (stereo not given) | 3.39
7 | CCCCCCCN(CCCCCCC)CC(O)c1cc2ccccc2c2ccccc12 (stereo not given) | 2.87
8 | Cc1ccc(-c2cc(C(O)CC3CCCCN3)c3cccc(C(F)(F)F)c3n2)cc1 (stereo not given) | 3.94
9 | CCCCCCCN(CCCCCCC)CC(O)c1c(OC)c2cc(Cl)ccc2c2ccc(Cl)cc12 (stereo not given) | 3.34
10 | CN1CCN(CC(O)c2cc(-c3ccc(F)cc3)nc3cc(F)ccc23)CC1 (stereo not given) | 2.27
11 | CCN(CC)CC(O)c1cc2c(Cl)cc(Cl)cc2c2cc(Cl)ccc12 (stereo not given) | 3.9
12 | CCCCN(CCCC)CC(O)c1c(C)c(-c2ccc(C)cc2C)nc2c1cc(Cl)c1ccccc12 (stereo not given) | 3.05
13 | CCCCCCCN(CCCCCCC)CC(O)c1cc2ccc(C(F)(F)F)cc2c2ccccc12 (stereo not given) | 3.12
14 | CCCCCCCN(CCCCCCC)CC(O)c1cc2ccc(Cl)cc2c2ccccc12 (stereo not given) | 2.44
15 | CCN(CC)CC(O)c1cc(-c2ccc(C)cc2)nc2c(C)cc(C)cc12 (stereo not given) | 2.8
16 | CCCCNC(C)(C)CC(O)c1cc(C(F)(F)F)nc2c(C(F)(F)F)cccc12 (stereo not given) | 3.27
17 | OC(CC1CCCCN1)c1cc2ccc(Cl)cc2c2cc(C(F)(F)F)ccc12 (stereo not given) | 4.09
18 | CCCCN(CCCC)CC(O)c1cc(-c2ccc(Br)cc2)nc(-c2ccc(Br)cc2)c1 (stereo not given) | 3.31
19 | Cc1ccc2c(C(O)CC3CCCCN3)cc3ccc(C(F)(F)F)cc3c2c1 (stereo not given) | 3.16
20 | CCCCCCCN(CCCCCCC)CC(O)c1cc2ccc(Cl)cc2c2cc(OC)ccc12 (stereo not given) | 2.98
21 | CCCN(CCC)CC(O)c1cc2ccc(C(F)(F)F)cc2c2cc(Cl)c(Cl)cc12 (stereo not given) | 4.3
22 | CCCCN(CCCC)CC(O)c1cc(Cl)c2nc(-c3ccccc3)ccc2c1 (stereo not given) | 2.51
23 | CCCCCCCN(CCCCCCC)CC(O)c1cccc2cc3c(Cl)cccc3cc12 (stereo not given) | 2.44
24 | OC(CC1CCCCN1)c1cc(-c2ccc(Cl)cc2)nc2c(C(F)(F)F)cccc12 (stereo not given) | 4.45
25 | CCCCCCCN(CCCCCCC)CC(O)c1cc2ccccc2c2cc(C(F)(F)F)ccc12 (stereo not given) | 3.56

Row | Compound | log(1/C)
26 | CCCCN(CCCC)CC(O)c1cc(-c2ccc(Cl)cc2)cc2ccc(OC)cc12 (stereo not given) | 3.9
27 | CCCCN(CCCC)CC(O)c1cc(Cc2ccccc2)nc2c(Cl)cc(Cl)cc12 (stereo not given) | 2.6
28 | CCCCN(CCCC)CC(O)c1c(Br)c2ccccc2c2cc(Br)ccc12 (stereo not given) | 3.23
29 | CCCCCCCN(CCCCCCC)CC(O)c1ccc2ccc3cccc(C(F)(F)F)c3c2c1 (stereo not given) | 2.58
30 | OC(CCC1CCCCN1)c1cc2ccc(Cl)cc2c2cc(Cl)ccc12 (stereo not given) | 3.89
31 | CCCCCCCN(CCCCCCC)CC(O)c1cc2ccc(Cl)cc2c2cc(C(F)(F)F)ccc12 (stereo not given) | 3.61
32 | Cc1ccc2c(C(O)CC3CCCCN3)cc3ccccc3c2c1 (stereo not given) | 2.83
33 | CCCCN(CCCC)CC(O)c1cc(-c2ccc(Cl)cc2)cc2ccccc12 (stereo not given) | 3.87
34 | CCCCN(CCCC)CC(O)c1cc2c(Cl)cccc2c2ccccc12 (stereo not given) | 2.65
35 | CCCCN(CCCC)CC(O)c1cc2cc(SC)ccc2c2cc(Cl)c(Cl)cc12 (stereo not given) | 3.74
36 | OC(CCC1CCCCN1)c1cc2ccc(C(F)(F)F)cc2c2cc(C(F)(F)F)ccc12 (stereo not given) | 4.11
37 | OC(CC1CCCCN1)c1cc2cc(C(F)(F)F)cc(C(F)(F)F)c2c2ccc(Cl)cc12 (stereo not given) | 4.82
38 | OC(CC1CCCCN1)c1cc2cc(C(F)(F)F)cc(C(F)(F)F)c2c2cc(C(F)(F)F)ccc12 (stereo not given) | 4.47
39 | Cc1c(Cl)ccc2c(C(O)CN(CCC(C)C)CCC(C)C)cc(-c3ccc(Cl)cc3)nc12 (stereo not given) | 3.09
40 | CCCCCCCCN(CCCCCCCC)CC(O)c1cc(-c2ccc(OC)c(OC)c2)nc2ccc(Cl)cc12 (stereo not given) | 3.11
41 | CCCCN(CCCC)CC(O)c1cc(/C=C/c2ccc(Cl)cc2)nc(C23CC4CC(CC(C4)C2)C3)c1 (stereo not given) | 2.72
42 | CCCCCCN(CCCCCC)CC(O)c1cc(-c2ccc(Cl)cc2)nc2cc(Cl)ccc12 (stereo not given) | 3.28
43 | CCNCC(O)c1cc(-c2ccc(C(F)(F)F)cc2)nc(-c2ccc(C(F)(F)F)cc2)c1 (stereo not given) | 3.72
44 | CCCCN(CCCC)CC(O)c1cc2ccccc2c2cc(Cl)ccc12 (stereo not given) | 2.77
45 | CC1CCCNC1CC(O)c1cc(-c2ccccc2)nc2cc(Cl)ccc12 (stereo not given) | 3.52
46 | CCCCCCCN(CCCCCCC)CC(O)c1cc2c(Br)cccc2c2cc(C(F)(F)F)ccc12 (stereo not given) | 3.43
47 | OC(CCC1CCCCN1)c1cc(C(F)(F)F)nc2c(C(F)(F)F)cccc12 (stereo not given) | 3.36
48 | CCCCN(CCCC)CC(O)c1cc(Cl)cc2ccc(-c3ccc(Cl)cc3)nc12 (stereo not given) | 2.9
49 | CCCCN(CCCC)CC(O)c1cc(C23CC4CC(CC(C4)C2)C3)nc2c(Cl)cc(Cl)cc12 (stereo not given) | 3.29
50 | CCN(CC)CC(O)c1cc(-c2ccc(OC)c(OC)c2)nc2ccc(Cl)cc12 (stereo not given) | 3.12

Row | Compound | log(1/C)
51 | CCCCCCCN(CCCCCCC)CC(O)c1cc2ccccc2c2cc(F)ccc12 (stereo not given) | 3.08
52 | CCCCN(CCCC)CCC(O)c1cc2ccc(C(F)(F)F)cc2c2cc(C(F)(F)F)ccc12 (stereo not given) | 4.03
53 | Cc1ccc2nc(-c3ccccc3)cc(C(O)CC3CCCCN3)c2c1 (stereo not given) | 2.47
54 | Cc1cc(C)cc(-c2cc(C(O)CC3CCCCN3)c3ccccc3n2)c1 (stereo not given) | 2.24
55 | OC(CC1CCCCN1)c1cc2c(Cl)cc(Cl)cc2c2cc(Br)ccc12 (stereo not given) | 3.81
56 | OC(CC1CCCCN1)c1cc2ccc(Cl)cc2c2cc(Cl)ccc12 (stereo not given) | 3.5
57 | OC(CNC1CCCC1)c1cc(-c2ccc(Cl)cc2)nc2c(Cl)cc(Cl)cc12 (stereo not given) | 3.53
58 | CCCCNCC(O)c1cc(/C=C/c2ccc(C(F)(F)F)cc2)nc(-c2ccc(C(F)(F)F)cc2)c1 (stereo not given) | 3.89
59 | CCCN(CCC)CC(O)c1cc2cc(Br)cc(Br)c2c2cc(C(F)(F)F)ccc12 (stereo not given) | 4.24
60 | CCNC(C)(C)CC(O)c1cc(C(F)(F)F)nc2c(C(F)(F)F)cccc12 (stereo not given) | 2.54
61 | CCCCCCCN(CCCCCCC)CC(O)c1cc(Cl)cc2cc3ccccc3cc12 (stereo not given) | 3.1
62 | CCNCC(O)c1cc2ccc(C(F)(F)F)cc2c2cc(C(F)(F)F)ccc12 (stereo not given) | 4.39
63 | CCCCN(CCCC)CC(O)c1cc(C(C)(C)C)nc2c1ccc1ccccc12 (stereo not given) | 2.65
64 | CN(Cc1ccccc1)CC(O)c1cc(-c2cccs2)nc2cccc(Br)c12 (stereo not given) | 2.26
65 | Cc1cc(C)c2nc(-c3ccc(F)cc3)cc(C(O)CC3CCCCN3)c2c1 (stereo not given) | 3.61
66 | CCCCCCCN(CCCCCCC)CC(O)c1cc2cc(Cl)ccc2c2ccccc12 (stereo not given) | 3.09
67 | CCCCCCCN(CCCCCCC)CC(O)c1c2ccccc2c(Cl)c2ccccc12 (stereo not given) | 3.7
68 | CCCCCCN(CCCCCC)CC(O)c1cc(-c2ccccc2)nc2c(Cl)cc(Cl)cc12 (stereo not given) | 3.35
69 | OC(CC1CCCCN1)c1cc(-c2ccccc2)nc2c1ccc1ccccc12 (stereo not given) | 3.05
70 | CCCCNCC(O)c1cc2c(Cl)cc(Cl)cc2c2cc(C(F)(F)F)ccc12 (stereo not given) | 4.48
71 | CCCCN(CCCC)CC(O)c1cc2ccc(C(F)(F)F)cc2c2cc(Cl)ccc12 (stereo not given) | 3.88
72 | OC(CC1CCCCN1)c1cc2cc(Cl)cc(Cl)c2c2cc(C(F)(F)F)ccc12 (stereo not given) | 4.43
73 | OC(CC1CCCCN1)c1cc2cc(Br)ccc2c2ccccc12 (stereo not given) | 3.25
74 | CCCCCCCN(CCCCCCC)CC(O)c1c(Br)c2ccccc2c2cc(Br)ccc12 (stereo not given) | 3.42
75 | CCCCCNCC(O)c1cc(-c2ccc(C(F)(F)F)cc2)nc(-c2ccc(C(F)(F)F)cc2)c1 (stereo not given) | 4.17

Row | Compound | log(1/C)
76 | CCCCCCCN(CCCCCCC)CC(O)c1cc2c(Br)cccc2c2cc(Br)ccc12 (stereo not given) | 3.33
77 | CCCN(CCC)CC(O)c1cc2ccc(Br)cc2c2cc(Br)ccc12 (stereo not given) | 3.95
78 | Cc1cc(C)c2cc(C(O)CC3CCCCN3)c3ccc(C(F)(F)F)cc3c2c1 (stereo not given) | 3.25
79 | CCCCN(CCCC)CC(O)c1cc2ccc(Br)cc2c2ccsc12 (stereo not given) | 2.57
80 | CCCCCCCN(CCCCCCC)CC(O)c1cc2ccc(C(F)(F)F)cc2c2cc(C(F)(F)F)ccc12 (stereo not given) | 3.89
81 | CCCCCN(CCCCC)CC(O)c1cc(-c2ccc(Cl)cc2)nc(-c2ccc(Cl)cc2)c1 (stereo not given) | 3.13
82 | CCCCCCCN(CCCCCCC)CC(O)c1cccc2c1ccc1ccc(Cl)cc12 (stereo not given) | 2.54
83 | CN1CCCC1CC(O)c1cc2ccc(Cl)cc2c2cc(Cl)ccc12 (stereo not given) | 3.46
84 | CCCCN(CCCC)CC(O)/C(=C/c1ccc(C(F)(F)F)cc1)c1ccc(C(F)(F)F)cc1 (stereo not given) | 3.22
85 | OC(CC1CCCCN1)c1cc2ccccc2c2ccccc12 (stereo not given) | 2.53
86 | CCCCN(CCCC)CC(O)c1cc2c(Br)cc(Br)cc2c2cc(Br)ccc12 (stereo not given) | 4.19
87 | CCCCCCCN(CCCCCCC)CC(O)c1cc2sccc2c2ccsc12 (stereo not given) | 2.58
88 | OC(CC1CCCCN1)c1cc2c(Cl)cc(Cl)cc2c2cc(Cl)ccc12 (stereo not given) | 4.12
89 | CCCCCCCN(CCCCCCC)CC(O)c1cc(-c2ccc(Cl)c(Cl)c2)cc2cc(Cl)ccc12 (stereo not given) | 2.6
90 | OC(CC1CCCCN1)c1cc(C(F)(F)F)nc2cc(C(F)(F)F)ccc12 (stereo not given) | 4.05
91 | CCCCN(CCCC)CC(O)c1cc2ccc(Cl)cc2nc1-c1ccc(Cl)cc1 (stereo not given) | 2.2
92 | CCCCN(CCCC)CC(O)c1cc(-c2ccc(Cl)cc2)nc(-c2ccc(Cl)cc2)c1 (stereo not given) | 3.84
93 | OC(CC1CCCCN1)c1cc2cc(Cl)c(Cl)cc2c2cc(Br)ccc12 (stereo not given) | 3.91
94 | CCCCCCN(CCCCCC)CC(O)c1cc(-c2ccc(OC)cc2)nc2cc(OC)c(Cl)cc12 (stereo not given) | 2.64
95 | CCN(CC)CC(O)c1cc(-c2ccc(Cl)c(Cl)c2)nc2ccc(OC)cc12 (stereo not given) | 3.15
96 | CCN(CC)CC(O)c1cc2cc(Cl)cc(Cl)c2nc1-c1ccc(Cl)cc1 (stereo not given) | 2.47
97 | OC(CNC1CCCCC1)c1cc2ccccc2c2cc(OC(F)(F)F)ccc12 (stereo not given) | 3.34
98 | CCCCCN(CCCCC)CC(O)c1cccc2c1cc(Cl)c1ccccc12 (stereo not given) | 2.14
99 | CCCCCCCN(CCCCCCC)CC(O)c1c(Br)ccc2c1ccc1ccccc12 (stereo not given) | 2.5
100 | CC(C)CN(C)CC(O)c1cc(-c2ccc(Cl)cc2)nc(-c2ccc(Cl)cc2)c1 (stereo not given) | 3.29
